Laboratory results taken from patent US11229633B2, “Arimoclomol formulation” (Orphazyme A/S, priority 2014, dated 2022).
Entries after “also recorded” stand apart in the source; their conditions may differ.

Tests used:
Format in all cases: in vitro ADME
human OAT3 = target: T1, human OAT3 (Homo sapiens, UniProt Q8TCC7); test: Uptake transporter inhibition assay, OAT3; parameters: key to maximum inhibition: NIO: No interaction observed; conditions: for maximum inhibition: 0.3-300 μM
T1 construct: expressed in transfected cells; host or cells: MDCKII (protocol UPT-MDCKII-OAT3-E3S; control: parental MDCKII)
T1 sequence (Q8TCC7 1-542): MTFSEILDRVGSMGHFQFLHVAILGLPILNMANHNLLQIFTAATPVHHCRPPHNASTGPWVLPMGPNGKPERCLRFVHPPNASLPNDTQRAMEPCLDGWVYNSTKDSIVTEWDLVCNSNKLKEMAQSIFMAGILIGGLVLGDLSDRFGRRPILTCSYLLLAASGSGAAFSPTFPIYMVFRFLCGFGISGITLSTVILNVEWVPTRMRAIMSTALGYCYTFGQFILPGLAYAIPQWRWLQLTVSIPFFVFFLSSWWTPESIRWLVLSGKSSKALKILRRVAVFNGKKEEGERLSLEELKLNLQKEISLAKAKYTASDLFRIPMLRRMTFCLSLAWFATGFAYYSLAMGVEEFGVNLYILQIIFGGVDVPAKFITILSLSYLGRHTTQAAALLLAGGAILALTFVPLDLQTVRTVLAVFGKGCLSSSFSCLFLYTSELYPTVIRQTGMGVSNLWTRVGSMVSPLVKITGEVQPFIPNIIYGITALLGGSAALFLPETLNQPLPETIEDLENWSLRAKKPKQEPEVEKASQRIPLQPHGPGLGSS
Description: (§1) Uptake experiments were performed using CHO, MDCKII, or HEK293 cells stably expressing the respective uptake transporters.
(§2) Cells were cultured at 37±1° C. in an atmosphere of 95:5 air:CO2 and were plated onto standard 96-well tissue culture plates at the cell number described in table 4.
(§3) Before the experiment, the medium was removed and the cells were washed twice with 100 μl of HK buffer at pH 7.4 (prepared from Sigma chemicals, Sigma-Aldrich, St Louis, Mo.). Uptake experiments were carried out at 37±1° C. in 50 μl of HK buffer (pH 7.4) containing the probe substrate and the TA or vehicle control (water).
(§4) After the experiment, cells were washed twice with ice cold, 100 μl of HK buffer and lysed with 50 μl of 0.1 M NaOH (1 mM CaCl2) in 5% SDS in the case of OATP1B3). Fluo-3 transport (OATP1B3) was determined by measuring fluorescence using 485 nm and 520 nm as the excitation and emission wavelengths, respectively. Radiolabelled probe substrate transport was determined by measuring an aliquot (35 μl) from each well for liquid scintillation counting.
(§5) Uptake of the probe substrate in control cells provided background activity values for all data points. Incubation without TA or reference inhibitor (solvent only) provided 100% activity values. A reference inhibitor served as positive control for inhibition.
(§6) The amount of translocated probe substrate was determined for each well in cpm or RFU. Relative activities were calculated from the equation:
(§7) [formula] A: amount of translocated substrate in the presence of TA in transfected cells B: amount of translocated substrate in the presence of TA in control cells C: amount of translocated substrate in the presence of solvent in transfected cells D: amount of translocated substrate in the presence of solvent in control cells Calculation of Fold Accumulation Values
(§8) In uptake transporter inhibition assays, the IC50 (μM) was calculated, where applicable. […]

OATP1B3 [1] = target: T2, OATP1B3 (Homo sapiens, UniProt Q9NPD5); test: Substrate statement, OATP1B3
T2 sequence (Q9NPD5 1-702): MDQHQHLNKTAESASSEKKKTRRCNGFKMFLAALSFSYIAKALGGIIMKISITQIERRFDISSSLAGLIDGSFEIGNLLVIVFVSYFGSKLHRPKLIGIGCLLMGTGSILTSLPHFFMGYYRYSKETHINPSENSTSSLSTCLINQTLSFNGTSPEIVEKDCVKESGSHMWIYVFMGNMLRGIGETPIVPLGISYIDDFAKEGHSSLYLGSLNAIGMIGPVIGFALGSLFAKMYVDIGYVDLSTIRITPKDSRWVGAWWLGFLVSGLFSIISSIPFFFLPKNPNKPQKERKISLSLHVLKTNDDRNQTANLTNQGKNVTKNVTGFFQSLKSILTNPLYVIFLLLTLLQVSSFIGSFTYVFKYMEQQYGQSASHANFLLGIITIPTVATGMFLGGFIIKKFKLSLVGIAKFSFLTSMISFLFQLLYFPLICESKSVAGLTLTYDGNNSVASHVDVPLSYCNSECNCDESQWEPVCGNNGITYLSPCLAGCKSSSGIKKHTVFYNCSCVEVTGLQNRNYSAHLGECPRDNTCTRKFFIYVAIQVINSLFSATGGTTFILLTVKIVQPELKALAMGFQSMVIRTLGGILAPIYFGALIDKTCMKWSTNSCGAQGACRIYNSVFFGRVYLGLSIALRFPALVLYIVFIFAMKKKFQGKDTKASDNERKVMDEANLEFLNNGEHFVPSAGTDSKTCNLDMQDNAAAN

OATP1B3 [2] = target: T2, OATP1B3; test: Uptake transporter inhibition assay, OATP1B3; parameters: expressed in transfected cells; host or cells: CHO (protocol UPT-CHO-OATP1B3-Fluo3; control: parental CHO-K1; 5 mM Na+ butyrate induction); key to maximum inhibition: NIO: No interaction observed; conditions: for maximum inhibition: 0.3-300 μM
Description: as §1, §2, §3, §4, §5, §6, §7, §8

`[O-][n+]1cccc(C(Cl)=NOCC(O)CN2CCCCC2)c1` (stereo not shown) [Arimoclomol, N-[2-hydroxy-3-(1-piperidinyl)-propoxy]-pyridine-1-oxide-3-carboximidoyl chloride] was tested, and the maximum inhibition (human OAT3; Table 2) was “NIO”, the maximum inhibition (human OAT3; Table 5) was “NIO” and the “Influence on OAT3-mediated probe substrate accumulation (in words)” value (human OAT3; applied concentrations) was “did not influence; also recorded: not an inhibitor”. For the same compound, the “Substrate of the transporter (in words)” value (OATP1B3 [1]) was “not a substrate”, the maximum inhibition (OATP1B3 [2]; Table 2) was “NIO” and the maximum inhibition (OATP1B3 [2]; Table 5) was “NIO”. For the same compound, the “Influence on OATP1B3-mediated probe substrate accumulation (in words)” value (OATP1B3 [2]; applied concentrations) was “did not influence; also recorded: not an inhibitor”.
